System: skin conditions (boil, folliculitis, ingrown hair)
Assay: Empirical studies of active ingredients in topical compositions
Assay type: in vivo, human

Compound | relieving pain of papule-like boil or ingrown hair conditions (1% by weight in composition) | treating contemplated skin conditions (antibiotic ingredients blended into compositions)
CCCCOc1ccc(OCCCN2CCOCC2)cc1 [Pramoxine] | effective | 
bacitracin zinc |  | effective

Source: patent publication US20230032283A1, “Topical Compositions For Treating Skin Ailments” (priority 2021, published 2023)
